From patent US20070105835A1, “Compositions and methods for modulating poly(ADP-ribose) polymerase activity” (priority 2005, published 2007)
Entries after “also recorded” stand apart in the source; their conditions may differ. Like-named read-outs stand apart in the source and are kept apart here. Each block holds one compound with its values, some of them ahead of it.

Legend:
[1] = test system: striatal cells derived from Huntingtin double knock-in mutant and wildtype transgenic mice; test: ATP levels in oxidant-treated wildtype and mutant HD striatal cells; assay type: cell-based, mouse; conditions: for EC50: read-out: oxidant concentration for 50% loss of ATP; for loss of ATP from basal ATP levels: 500 μM oxidant; for rescue of loss of ATP: mutant and wild type striatal cells, oxidant-treated
Method: (§1) FIGS. 3A-3F. FIG. 3A is a bar graph showing the effect of the PARP-1 inhibitor ANI on ATP levels in one normal (white) and two mutant HD (black) lymphoid cell lines treated with the oxidant (Oxd.) hydrogen peroxide. Lymphoblasts treated (T) with 200 μM oxidant were supplemented with mock inhibitor (DMSO) or with 5 μM PARP-1 inhibitor ANI. FIG. 3B is a bar graph showing the effect of the novel PARP-1 inhibitor K245 on ATP levels in oxidant (Oxd.) treated normal (white) and mutant HD (black) lymphoid cell lines. Hydrogen peroxide was the oxidant. Lymphoblasts treated (T) with 200 μM oxidant were supplemented with mock inhibitor (DMSO) or with 1, 5 or 10 μM PARP-1 inhibitor K245. FIG. 3C is a bar graph showing the effects of various compounds on relative ATP levels in wildtype (white) and mutant HD (black) striatal cells treated with 400 μM hydrogen peroxide. Basal ATP levels in cells untreated with oxidant were 100%. Oxidant-treated cells were supplemented with mock (DMSO) or PARP-1 inhibitors ANI and K245 at concentrations 0.1 μM, 1 μM, and 5 μM; and 1 μM, 5 μM, and 10 μM, respectively. […] FIG. 3D is a bar graph showing the effects of PARP-1 inhibitors ANI and K245 on basal ATP levels in normal (white) and mutant HD (black) lymphoblasts. Cells were supplemented with 5 μM ANI and 10 μM K245. Basal ATP levels in cells supplemented with mock (DMSO) were 100%. Cells were not treated with oxidant. FIG. 3E is a bar graph showing the effects of PARP-1 inhibitors on ATP levels in untreated striatal cells and in striatal cells treated with the mitochondrial blocker 3-NP. Wildtype cells are indicated by white bars and mutant HD cells are indicated by black bars. Untreated wildtype and mutant HD cells were supplemented with 5 μM ANI or 10 μM K245. Basal ATP levels in cells supplemented with mock (DMSO) were 100%. Cells treated with 5 μM 3-NP were supplemented with mock (DMSO), 1 or 5 μM ANI, or 1 μM, 5 μM, or 10 μM K245. FIG. 3F is a bar graph showing PARP-1 activity levels in untreated wildtype (7Q) and mutant HD (111Q) striatal cells, and in normal (30Q) and mutant HD (63Q) lymphoblasts.

[2] = test system: lymphoblasts derived from HD patients and normal controls; test: ATP levels in oxidant-treated normal and HD lymphoblasts; assay type: cell-based, human; conditions: for EC50: Homo sapiens, read-out: oxidant concentration for 50% loss of ATP; for rescue of loss of ATP: HD and wild type lymphoblasts, oxidant-treated
Method: as §1

[3] = target: recombinant PARP-1 (Homo sapiens, UniProt P09874); test: in vitro PARP-1 enzyme inhibition assay; assay type: biochemical
Chain of recombinant PARP-1 (P09874 whole entry): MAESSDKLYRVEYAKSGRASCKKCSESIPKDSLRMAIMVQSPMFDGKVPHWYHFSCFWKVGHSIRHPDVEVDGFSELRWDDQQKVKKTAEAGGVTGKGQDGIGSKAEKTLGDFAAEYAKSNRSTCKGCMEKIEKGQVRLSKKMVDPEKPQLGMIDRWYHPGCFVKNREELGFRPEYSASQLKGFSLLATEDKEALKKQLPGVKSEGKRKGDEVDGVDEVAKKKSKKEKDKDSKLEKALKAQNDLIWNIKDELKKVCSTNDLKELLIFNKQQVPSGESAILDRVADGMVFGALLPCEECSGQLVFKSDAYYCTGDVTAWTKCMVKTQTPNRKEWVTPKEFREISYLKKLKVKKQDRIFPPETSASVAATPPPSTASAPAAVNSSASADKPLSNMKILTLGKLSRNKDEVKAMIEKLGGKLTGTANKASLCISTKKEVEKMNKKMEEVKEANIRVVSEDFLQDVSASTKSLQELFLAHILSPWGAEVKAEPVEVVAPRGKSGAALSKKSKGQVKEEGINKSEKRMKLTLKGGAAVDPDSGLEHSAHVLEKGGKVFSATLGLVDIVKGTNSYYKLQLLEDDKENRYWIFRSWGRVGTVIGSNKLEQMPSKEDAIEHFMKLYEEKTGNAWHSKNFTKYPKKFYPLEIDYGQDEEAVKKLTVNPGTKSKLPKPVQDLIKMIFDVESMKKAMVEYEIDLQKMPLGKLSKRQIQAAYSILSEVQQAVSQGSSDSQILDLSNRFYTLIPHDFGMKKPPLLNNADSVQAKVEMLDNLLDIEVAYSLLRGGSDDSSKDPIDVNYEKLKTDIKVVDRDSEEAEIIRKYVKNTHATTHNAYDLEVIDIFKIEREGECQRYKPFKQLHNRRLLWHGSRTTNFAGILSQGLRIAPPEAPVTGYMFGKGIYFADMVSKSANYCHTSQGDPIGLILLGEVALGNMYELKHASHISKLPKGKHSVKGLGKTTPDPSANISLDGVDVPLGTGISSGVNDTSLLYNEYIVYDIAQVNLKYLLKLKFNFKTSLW
Method: FIGS. 2A-2F. FIG. 2A is a bar graph showing ATP levels in PC12 cells treated with the oxidant (Oxd.), hydrogen peroxide, in the absence (white) and in the presence (gray) of the PARP-1 inhibitor (ANI). FIG. 2B is a graph showing relative ATP levels in PC12 cells treated with hydrogen peroxide in the absence (solid line) and in the presence (dashed line) of 5 μM PARP-1 inhibitor ANI. FIG. 2C is a bar graph showing ATP levels in PC12 cells either untreated (U) or treated (T) with 200 μM oxidant and supplemented with the compounds indicated at the concentrations indicated. […] The IC50 of each inhibitor, determined by in vitro assay, is also shown. […] FIG. 2E is a bar graph showing the effect of different compounds on recombinant PARP-1 activity in vitro. PARP-1 enzymatic activities were determined in the absence (white) or presence (gray) of the testing compounds. […] FIG. 2F is a graph showing the calculated IC50 of inhibitor K245.
(See, e.g., Jagtap and Szabo, Nat Rev Drug Discov. 4:421-440, 2005; Ha and Snyder, Proc Natl Acad Sci USA. 96: 13978-13982, 1999; and Ying et al., Proc Natl Acad Sci USA 98:12227-12232, 2001). To test the effect of the compounds on PARP1 activity, an in vitro PARP-1 assay was used.
Identification of structural analogs. […] PARP-1 activity in the presence of decreasing concentrations of three different inhibitors is shown in the graph in FIG. 6.

[4] = test system: PC12 cell-line expressing fragments of mutant Htt protein; test: oxidant (hydrogen peroxide)-mediated ATP loss and cell death in PC12 cells expressing mutant Htt fragments; assay type: cell-based
Method: To investigate the impact of oxidative stress on HD cells we measured ATP levels in lymphoblasts derived from HD patients and normal controls. ATP levels were measured using a commercially available-luciferase substrate. The luciferase enzyme uses ATP as a cofactor to produce one photon of light per substrate molecule (e.g., luciferin). The detectable output is luminescence. There is a linear relationship between the amount of signal output and the amount of ATP present in the sample. Thus, the amount of ATP present in a sample can be directly correlated with the measured output.
To investigate the basis for the hypersensitivity of mutant cells to oxidative stress, we employed a chemical biological approach and screened for small molecules capable of preventing an unsustainable loss of ATP in HD mutant cells. We developed an assay to measure oxidative stress-dependent ATP loss and subsequent cell-death. […] In addition, amino groups of each of CGI and K245-14 were predicted to form hydrogen bonds with Ser243 and Gly202 of PARP1.
To confirm that inhibition of PARP-1 activity could protect cells from ATP depletion, we tested two known enzyme inhibitors in PC12 cells challenged with oxidative stress. The PC12 cell line expressed fragments of mutant Htt protein as described above. […] Maintenance of ATP levels rescued by the PARP-1 inhibitors was dependent on the severity of cellular oxidation (FIG. 2A).

[5] = test system: α-synuclein toxicity; test: Parkinson's Disease alpha-synuclein toxicity assay; assay type: cell-based
Source text: Alpha-synuclein toxicity assays can also be used to identify compounds that positively impact cell survival and/or function. […] As noted, Parkinson's Disease is among the indications for the present compositions.

[6] = Table 3, in vitro enzyme inhibition, read-out: IC50
[7] = text and figure legend, read-out: IC50 for PARP-1 inhibition in vitro

SMILES: Nc1ccc2c3c(cccc13)C(=O)N2 [CG1]
rescue of oxidant-mediated ATP loss and cell death [4]: rescued oxidant-mediated ATP loss and cell death
IC50 [3, 7]: 2.5 µM

SMILES: COc1ccc(N2CCN(C(=O)c3ccc4c(c3)NC(=O)c3ccccc3N4)CC2)cc1 [K245-39A]
IC50 [3, 6]: 5.5 µM

SMILES: Nc1ccc2c3c(cccc13)C(=O)NC2=O [4-ANI]
rescue of loss of ATP [1]: rescued loss of ATP
rescue of oxidant-mediated ATP loss and cell death [4]: protected high levels of cellular ATP
rescue of loss of ATP [2]: rescued loss of ATP

SMILES: O=C1Nc2cc(C(=O)N3CCN(Cc4ccccc4)CC3)ccc2Nc2ccccc21 [K245-42]
IC50 [3, 6]: 2.2 µM

SMILES: CCN(CC)CCNC(=O)c1ccc2c(c1)NC(=O)c1ccccc1N2 [K245-14]
protective effect in α-synuclein toxicity assay [5]: small but reproducible protective effects
rescue of loss of ATP [1]: rescued loss of ATP
rescue of oxidant-mediated ATP loss and cell death [4]: rescued oxidant-mediated ATP loss and cell death
rescue of loss of ATP [2]: rescued loss of ATP
IC50 [3, 7]: 2 µM

SMILES: CCN1C(=O)c2cccc3c(N)ccc1c23 [CG3, reference compound]
rescue of oxidant-mediated ATP loss and cell death [4]: did not protect cells from oxidative stress
PARP-1 inhibition ([3]; result in words): did not show any PARP-1 inhibition activity; also recorded: failed to inhibit PARP-1 activity

SMILES: O=C1Nc2cc(C(=O)N3CCN(c4ccccc4F)CC3)ccc2Nc2ccccc21 [K245-89]
IC50 [3, 6]: 0.55 µM

SMILES: O=C1Nc2cc(C(=O)N3CCN(c4ccc(Cl)cc4)CC3)ccc2Nc2ccccc21 [K245-88]
IC50 [3, 6]: 0.15 µM

Continued, in another order:

EC50 ([1]; Mus musculus, mutant HD striatal cells): 410 µM
EC50 ([1]; Mus musculus, wildtype striatal cells): 550 µM
EC50 ([1]; mutant HD striatal cells): 420 µM
SMILES: OO [hydrogen peroxide]
loss of ATP from basal ATP levels ([1]; mutant striatal cells): 80%
loss of ATP from basal ATP levels ([1]; wildtype striatal cells): 20%
EC50 ([2]; mutant HD lymphoblasts): 60 µM
EC50 ([2]; normal lymphoblasts): 120 µM

IC50 [3, 6]: 4 µM
SMILES: CCN(CCCNC(=O)c1ccc2c(c1)NC(=O)c1ccccc1N2)c1cccc(C)c1 [K245-99]

IC50 [3, 6]: 3.5 µM
SMILES: O=C1Nc2cc(C(=O)N3CCCC3)ccc2Nc2ccccc21 [K245-80]

IC50 [3, 6]: 2 µM
SMILES: COC(CNC(=O)c1ccc2c(c1)NC(=O)c1ccccc1N2)OC [K245-95]
